{
  "source": "ChEMBL document CHEMBL5385865",
  "about": "“Discovery and optimization of 2-(trifluoromethyl)benzimidazole derivatives as novel ferroptosis inducers in vitro and in vivo” (Eur J Med Chem, 2023)",
  "key": {"DU-145": {"tested_on": "DU-145", "assay": "Lethality in human DU-145 cells assessed as inhibition of cell viability incubated for 24 hrs by MTT assay", "type": "functional, cell-based", "details": "DU-145, 24 h"}, "HepG2 [1]": {"tested_on": "HepG2", "assay": "Induction of ferroptosis in human HepG2 cells xenografted in BALB/c nude mouse assessed as increase in 4-HNE level administered intraperitoneally every other day for 21 days", "type": "functional", "details": "dose 15-30 mg/kg, route ip, time 21.0 day"}, "[2]": {"assay": "Toxicity in BALB/c nude mouse xenografted with human HepG2 cells assessed as histological change in liver at 15 to 30 mg/kg, ip administered every other day for 21 days by H and E staining based analysis", "type": "organism-based", "details": "in vivo, 504 h, dose 15-30 mg/kg, time 21 day"}, "786-0": {"tested_on": "786-0", "assay": "Lethality in human 786-0 cells assessed as decrease in cell viability at 10 uM incubated for 48 hrs by MTT assay", "type": "functional, cell-based"}, "A-375 [3]": {"tested_on": "A-375", "assay": "Lethality in human A-375 cells assessed as decrease in cell viability at 10 uM incubated for 48 hrs in presence of DFO by MTT assay", "type": "functional, cell-based"}, "HepG2 [4]": {"tested_on": "HepG2", "assay": "Antitumor activity against human HepG2 cells xenografted in BALB/c nude mouse assessed as tumor growth inhibition at 30 mg/kg, ip administered every other day for 21 days by electronic caliper analysis relative to control", "type": "functional", "details": "HepG2, 504 h, time 21 day, read-out: TGI"}, "[5]": {"assay": "Toxicity in BALB/c nude mouse xenografted with human HepG2 cells assessed as histological change in kidney at 15 to 30 mg/kg, ip administered every other day for 21 days by H and E staining based analysis", "type": "organism-based", "details": "in vivo, 504 h, dose 15-30 mg/kg, time 21 day"}, "A-375 [6]": {"tested_on": "A-375", "assay": "Lethality in human A-375 cells assessed as decrease in cell viability at 10 uM incubated for 48 hrs in presence of Fer-1 by MTT assay", "type": "functional, cell-based"}, "HT-1080 [7]": {"tested_on": "HT-1080", "assay": "Induction of ferroptosis in human HT-1080 cells assessed as shrinkage of mitochondria at 5 uM incubated for 24 hrs by TEM analysis", "type": "functional, cell-based"}, "HepG2 [8]": {"tested_on": "HepG2", "assay": "Lethality in human HepG2 cells assessed as decrease in cell viability at 10 uM incubated for 48 hrs in presence of Fer-1 by MTT assay", "type": "functional, cell-based"}, "[9]": {"molecular_target": "T1, Cystine/glutamate transporter (Homo sapiens) (UniProt Q9UPY5)", "T1 sequence (whole entry)": "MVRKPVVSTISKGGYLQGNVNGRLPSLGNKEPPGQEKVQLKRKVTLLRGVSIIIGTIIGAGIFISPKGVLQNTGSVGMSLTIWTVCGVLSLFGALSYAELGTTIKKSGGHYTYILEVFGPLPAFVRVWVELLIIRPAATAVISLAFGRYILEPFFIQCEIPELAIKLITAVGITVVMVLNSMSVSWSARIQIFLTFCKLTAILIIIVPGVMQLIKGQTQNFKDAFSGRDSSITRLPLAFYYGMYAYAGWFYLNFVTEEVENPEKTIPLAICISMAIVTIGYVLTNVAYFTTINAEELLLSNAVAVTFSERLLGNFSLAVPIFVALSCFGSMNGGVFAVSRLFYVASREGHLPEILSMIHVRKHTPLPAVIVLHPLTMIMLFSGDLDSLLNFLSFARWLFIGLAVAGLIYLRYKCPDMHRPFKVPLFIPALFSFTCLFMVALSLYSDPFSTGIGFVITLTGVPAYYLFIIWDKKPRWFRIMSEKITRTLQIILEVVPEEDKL", "assay": "Inhibition of Xc- in human HT-1080 cells assessed as decrease in glutamate release incubated for 3 hrs by Amplex red assay", "type": "cell-based", "details": "dose 0.5-5 µM"}, "[10]": {"assay": "Toxicity in BALB/c nude mouse xenografted with human HepG2 cells assessed as body weight loss at 15 to 30 mg/kg, ip administered every other day for 21 days", "type": "organism-based", "details": "in vivo, 504 h, dose 15-30 mg/kg, time 21 day"}, "[11]": {"assay": "Toxicity in human AC16 cells upto 20 uM incubated for 48 hrs by MTT assay", "type": "cell-based", "details": "ac16 [human hybrid]"}, "[12]": {"assay": "Toxicity in human HEK293T cells upto 20 uM incubated for 48 hrs by MTT assay", "type": "cell-based", "details": "hek-293t"}, "HT-1080 [13]": {"tested_on": "HT-1080", "assay": "Induction of ferroptosis in human HT-1080 cells assessed as cell death at 10 uM incubated for 24 hrs in presence of Nec-1 by MTT assay", "type": "functional, cell-based"}, "MDA-MB-231 [14]": {"tested_on": "MDA-MB-231", "assay": "Lethality in human MDA-MB-231 cells assessed as decrease in cell viability at 10 uM incubated for 48 hrs in presence of DFO by MTT assay", "type": "functional, cell-based"}, "MDA-MB-231 [15]": {"tested_on": "MDA-MB-231", "assay": "Lethality in human MDA-MB-231 cells assessed as decrease in cell viability at 10 uM incubated for 48 hrs in presence of Fer-1 by MTT assay", "type": "functional, cell-based"}, "HeLa": {"tested_on": "HeLa", "assay": "Lethality in human HeLa cells assessed as inhibition of cell viability incubated for 24 hrs by MTT assay", "type": "functional, cell-based"}, "[16]": {"molecular_target": "T2, Phospholipid hydroperoxide glutathione peroxidase GPX4 (Homo sapiens) (UniProt P36969)", "T2 sequence (whole entry)": "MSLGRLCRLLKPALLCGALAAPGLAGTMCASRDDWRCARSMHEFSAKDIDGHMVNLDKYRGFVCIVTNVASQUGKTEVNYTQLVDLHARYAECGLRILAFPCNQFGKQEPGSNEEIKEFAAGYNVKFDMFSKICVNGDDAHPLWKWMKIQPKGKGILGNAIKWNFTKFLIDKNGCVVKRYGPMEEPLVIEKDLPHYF", "assay": "Inhibition of GPX4 in human HT-1080 cells at 10 to 40 uM incubated for 12 hrs", "type": "cell-based", "details": "dose 10-40 µM"}, "HepG2 [17]": {"tested_on": "HepG2", "assay": "Lethality in human HepG2 cells assessed as decrease in cell viability at 10 uM incubated for 48 hrs in presence of DFO by MTT assay", "type": "functional, cell-based"}, "HepG2 [18]": {"tested_on": "HepG2", "assay": "Induction of apoptosis in human HepG2 cells xenografted in BALB/c nude mouse at 15 to 30 mg/kg, ip administered every other day for 21 days by TUNEL staining based IHC analysis", "type": "functional, organism-based", "details": "dose 15-30 mg/kg, time 21.0 day"}, "[19]": {"assay": "Metabolic stability in […] rat microsomes assessed as half life at 1 uM in presence of NADPH by LC-MS analysis", "type": "ADME, Liver, Microsome"}, "HT-1080 [20]": {"tested_on": "HT-1080", "assay": "Induction of ferroptosis in human HT-1080 cells assessed as cell death at 5 uM incubated for 6 hrs in presence of ferric ammonium citrate by fluorescent microscopy", "type": "functional, cell-based"}, "HT-1080 [21]": {"tested_on": "HT-1080", "assay": "Induction of ferroptosis in human HT-1080 cells assessed as increase in CHAC1 mRNA level incubated for 6 hrs by qPCR analysis", "type": "functional, cell-based", "details": "dose 0.5-5 µM"}, "A-375 [22]": {"tested_on": "A-375", "assay": "Lethality in human A-375 cells assessed as inhibition of cell viability incubated for 24 hrs by MTT assay", "type": "functional, cell-based", "details": "A-375, 24 h"}, "[23]": {"assay": "Toxicity in human L02 cells upto 20 uM incubated for 48 hrs by MTT assay", "type": "cell-based", "details": "l02, 48 h"}, "HT-1080 [24]": {"tested_on": "HT-1080", "assay": "Induction of ferroptosis in human HT-1080 cells assessed as cell death at 10 uM incubated for 24 hrs in presence of Trolox by MTT assay", "type": "functional, cell-based"}, "[25]": {"assay": "Metabolic stability in human liver microsomes assessed as intrinsic clearance measured per mg protein at 1 uM in presence of NADPH by LC-MS analysis", "type": "ADME, Microsome", "details": "read-out: CLH"}, "[26]": {"assay": "Metabolic stability in human liver microsomes assessed as half life at 1 uM in presence of NADPH by LC-MS analysis", "type": "ADME, Microsome"}},
  "note": "The source made the active and inactive calls. The calls are words filed in the database; no cut-off is given here.",
  "data": [
    {"smiles": "CN(C)S(=O)(=O)c1ccc(N2CCC(Cn3c(C(F)(F)F)nc4ccccc43)CC2)cc1", "values": [
      {"measurement": "IC50", "setting": "DU-145", "result": 1.64, "unit": "µM"},
      {"measurement": "Activity", "setting": "HepG2 [1]", "result": "Dose-Dependent Effect"},
      {"measurement": "Activity", "setting": "[2]", "result": "Non-Toxic"},
      {"measurement": "Activity", "setting": "786-0", "result": "Active"},
      {"measurement": "Activity", "setting": "A-375 [3]", "result": "inactive"},
      {"measurement": "inhibition in vivo at 30 mg/kg", "setting": "HepG2 [4]", "result": 77.1, "unit": "%"},
      {"measurement": "Activity", "setting": "[5]", "result": "Non-Toxic"},
      {"measurement": "Activity", "setting": "A-375 [6]", "result": "inactive"},
      {"measurement": "Activity", "setting": "HT-1080 [7]", "result": "Active"},
      {"measurement": "Activity", "setting": "HepG2 [8]", "result": "inactive"},
      {"measurement": "inhibition", "setting": "[9]", "result": "Dose-Dependent Effect"},
      {"measurement": "Activity", "setting": "[10]", "result": "Non-Toxic"},
      {"measurement": "Activity", "setting": "[11]", "result": "Non-Toxic"},
      {"measurement": "Activity", "setting": "[12]", "result": "Toxic"},
      {"measurement": "Activity", "setting": "HT-1080 [13]", "result": "Active"},
      {"measurement": "Activity", "setting": "MDA-MB-231 [14]", "result": "inactive"},
      {"measurement": "Activity", "setting": "MDA-MB-231 [15]", "result": "inactive"},
      {"measurement": "IC50", "setting": "HeLa", "result": 1.91, "unit": "µM"},
      {"measurement": "inhibition", "setting": "[16]", "result": "inactive"},
      {"measurement": "Activity", "setting": "HepG2 [17]", "result": "inactive"},
      {"measurement": "Activity", "setting": "HepG2 [18]", "result": "inactive"},
      {"measurement": "half-life at 1 µM", "setting": "[19]", "result": 10.4, "unit": "min"},
      {"measurement": "Activity", "setting": "HT-1080 [20]", "result": "Active"},
      {"measurement": "Activity", "setting": "HT-1080 [21]", "result": "Dose-Dependent Effect"},
      {"measurement": "IC50", "setting": "A-375 [22]", "result": 2.31, "unit": "µM"},
      {"measurement": "Activity", "setting": "[23]", "result": "Non-Toxic"},
      {"measurement": "Activity", "setting": "HT-1080 [24]", "result": "inactive"},
      {"measurement": "microsomal CLint at 1 µM", "setting": "[25]", "result": 88.6, "unit": "µL/min/mg"},
      {"measurement": "half-life at 1 µM", "setting": "[26]", "result": 15.6, "unit": "min"}
    ]}
  ]
}
